From US20240270762A1, “PENICILLIN-BINDING PROTEIN INHIBITORS” (priority 2021, published 2024)
pIC50: −log10 of the molar value. ≈ marks a conversion by molar mass, not a printed value.

Columns and labels:
[1] = target: T1, PBP3 from Acinetobacter baumannii (ATCC 19606) (Acinetobacter baumannii, UniProt A0ABX6CK25); assay: Bocillin-FL fluorescence polarization competition binding, A. baumannii PBP3; conditions: fluorescence polarization competition binding assay using Bocillin-FL; read-out: A. baumannii PBP3 Potency
T1 sequence (A0ABX6CK25 64-610): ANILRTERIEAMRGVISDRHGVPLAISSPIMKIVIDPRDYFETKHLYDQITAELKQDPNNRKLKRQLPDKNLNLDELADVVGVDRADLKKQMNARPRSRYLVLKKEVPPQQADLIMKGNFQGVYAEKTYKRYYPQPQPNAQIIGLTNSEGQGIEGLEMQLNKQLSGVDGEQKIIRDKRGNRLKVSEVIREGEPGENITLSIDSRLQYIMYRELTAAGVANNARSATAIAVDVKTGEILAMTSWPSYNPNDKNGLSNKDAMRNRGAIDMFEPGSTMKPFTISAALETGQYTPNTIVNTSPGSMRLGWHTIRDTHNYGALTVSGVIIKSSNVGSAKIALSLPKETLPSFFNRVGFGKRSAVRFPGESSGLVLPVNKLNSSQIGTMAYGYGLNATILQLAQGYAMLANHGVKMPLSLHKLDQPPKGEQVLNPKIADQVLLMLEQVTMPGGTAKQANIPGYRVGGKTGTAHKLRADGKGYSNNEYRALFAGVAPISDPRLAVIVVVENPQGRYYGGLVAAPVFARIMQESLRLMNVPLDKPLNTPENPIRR
Summary of the method: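 Purified PBP was preincubated with inhibitor (E. coli PBP3 1.5 μM, 30 min; P. aeruginosa PBP3 0.75 μM, A. baumannii PBP3 0.2 μM and PBP1a 1 μM, 15 min), then Bocillin-FL (0.1 μM; 0.05 μM for PBP1a) added and FP read up to 60 min. EC50 = 50% loss of bound probe.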

A. baumannii ATCC 17978 = assay: microbe, parasite or virus in culture; type: cell-based; conditions: Acinetobacter baumannii, ATCC17978, read-out: MIC, A. baumannii ATCC 17978
P. aeruginosa CDC-0090 = assay: microbe, parasite or virus in culture; type: cell-based; conditions: Pseudomonas aeruginosa, CDC0090, read-out: Minimum inhibitory concentration, P. aeruginosa CDC-0090
P. aeruginosa CDC-0095 = assay: microbe, parasite or virus in culture; type: cell-based; conditions: Pseudomonas aeruginosa, CDC0095, read-out: Minimum inhibitory concentration, P. aeruginosa CDC-0095
A. baumannii 1258916 = assay: microbe, parasite or virus in culture; type: cell-based, Acinetobacter baumannii; conditions: Acinetobacter baumannii, 1258916, read-out: MIC, A. baumannii 1258916
A. baumannii CDC-0033 = assay: microbe, parasite or virus in culture; type: cell-based; conditions: Acinetobacter baumannii, CDC0033, read-out: MIC, A. baumannii CDC-0033
A. baumannii CDC-0083 = assay: microbe, parasite or virus in culture; type: cell-based; conditions: Acinetobacter baumannii, CDC0083, read-out: MIC, A. baumannii CDC-0083
P. aeruginosa CDC-0110 = assay: microbe, parasite or virus in culture; type: cell-based; conditions: Pseudomonas aeruginosa, CDC0110, read-out: Minimum inhibitory concentration, P. aeruginosa CDC-0110
N. gonorrhoeae WHO M = assay: Liquid broth MIC in Fastidious broth; conditions: Neisseria gonorrhoeae, read-out: Minimum Inhibitory Concentration, WHO M
N. gonorrhoeae WHO K = assay: Liquid broth MIC in Fastidious broth; conditions: Neisseria gonorrhoeae, read-out: Minimum Inhibitory Concentration, WHO K
N. gonorrhoeae WHO X = assay: Liquid broth MIC in Fastidious broth; conditions: Neisseria gonorrhoeae, read-out: Minimum Inhibitory Concentration, WHO X

Structure (SMILES)	pIC50 [1]	MIC (A. baumannii ATCC 17978) [µg/mL]	MIC (P. aeruginosa CDC-0090) [µg/mL]	MIC (P. aeruginosa CDC-0095) [µg/mL]	MIC (A. baumannii 1258916) [µg/mL]	MIC (A. baumannii CDC-0033) [µg/mL]	MIC (A. baumannii CDC-0083) [µg/mL]	MIC (P. aeruginosa CDC-0110) [µg/mL]	MIC (N. gonorrhoeae WHO M) [µg/mL]	MIC (N. gonorrhoeae WHO K) [µg/mL]	MIC (N. gonorrhoeae WHO X) [µg/mL]
O=C(NCCS(=O)(=O)N1CCN(C(=O)N[C@H](C(=O)N[C@H]2Cc3ccc(F)c(C(=O)O)c3OB2O)c2cc(F)c(O)c(O)c2Cl)C1=O)c1nccs1 [Example 263, (R)-3-((S)-2-(2-chloro-5-fluoro-3,4-dihydroxyphenyl)-2-(2-oxo-3-((2-(thiazole-2-carboxamido)ethyl)sulfonyl)imidazolidine-1-carboxamido)acetamido)-7-fluoro-2-hydroxy-3,4-dihydro-2H-benzo[e][1,2]oxaborinine-8-carboxylic acid]	4.30 to 5.00	< 1	32 to 64 (≈ 41.4 to 82.8 µM)	> 128	32 to 64 (≈ 41.4 to 82.8 µM)	32 to 64 (≈ 41.4 to 82.8 µM)	2 to 4 (≈ 2.59 to 5.18 µM)	> 128	> 64	> 64	> 64
O=C(NCCS(=O)(=O)N1CCN(C(=O)N[C@@H](C(=O)N[C@H]2Cc3ccc(F)c(C(=O)O)c3OB2O)c2cc(F)c(O)c(O)c2Cl)C1=O)c1nccs1 [Example 264, (R)-3-((R)-2-(2-chloro-5-fluoro-3,4-dihydroxyphenyl)-2-(2-oxo-3-((2-(thiazole-2-carboxamido)ethyl)sulfonyl)imidazolidine-1-carboxamido)acetamido)-7-fluoro-2-hydroxy-3,4-dihydro-2H-benzo[e][1,2]oxaborinine-8-carboxylic acid]	> 5.00	< 1	< 1	2 to 4 (≈ 2.59 to 5.18 µM)	< 1	< 1	< 1	< 1	4 to 8 (≈ 5.18 to 10.4 µM)	16 to 32 (≈ 20.7 to 41.4 µM)	> 64
O=C(O)c1c(F)ccc2c1OB(O)[C@@H](NC(=O)C(NC(=O)N1CCN(S(=O)(=O)CCNC(=O)[C@@H]3CCCN3)C1=O)c1cc(F)c(O)c(O)c1Cl)C2 (stereo partly drawn) [Example 265, (3R)-3-(2-(2-chloro-5-fluoro-3,4-dihydroxyphenyl)-2-(2-oxo-3-((2-((S)-pyrrolidine-2-carboxamido)ethyl)sulfonyl)imidazolidine-1-carboxamido)acetamido)-7-fluoro-2-hydroxy-3,4-dihydro-2H-benzo[e][1,2]oxaborinine-8-carboxylic acid]	> 5.00	< 1	2 to 4 (≈ 2.64 to 5.27 µM)	2 to 4 (≈ 2.64 to 5.27 µM)	2 to 4 (≈ 2.64 to 5.27 µM)	8 to 16 (≈ 10.5 to 21.1 µM)	< 1	< 1	4 to 8 (≈ 5.27 to 10.5 µM)	> 64	> 64
O=C(NCCS(=O)(=O)N1CCN(C(=O)NC(C(=O)N[C@H]2Cc3ccc(F)c(C(=O)O)c3OB2O)c2cc(F)c(O)c(O)c2Cl)C1=O)Nc1cccc(O)c1 (stereo partly drawn) [Example 266, (3R)-3-(2-(2-chloro-5-fluoro-3,4-dihydroxyphenyl)-2-(3-((2-(3-(3-hydroxyphenyl)ureido)ethyl)sulfonyl)-2-oxoimidazolidine-1-carboxamido)acetamido)-7-fluoro-2-hydroxy-3,4-dihydro-2H-benzo[e][1,2]oxaborinine-8-carboxylic acid]	> 5.00	< 1	2 to 4 (≈ 2.51 to 5.02 µM)	8 to 16 (≈ 10 to 20.1 µM)	< 1	2 to 4 (≈ 2.51 to 5.02 µM)	< 1	2 to 4 (≈ 2.51 to 5.02 µM)	4 to 8 (≈ 5.02 to 10 µM)	16 to 32 (≈ 20.1 to 40.2 µM)	> 64
O=C(NCCS(=O)(=O)N1CCN(C(=O)N[C@@H](C(=O)N[C@H]2Cc3ccc(F)c(C(=O)O)c3OB2O)c2cc(F)c(O)c(O)c2Cl)C1=O)Nc1cccnc1 [Example 267, (R)-3-((R)-2-(2-chloro-5-fluoro-3,4-dihydroxyphenyl)-2-(2-oxo-3-((2-(3-(pyridin-3-yl)ureido)ethyl)sulfonyl)imidazolidine-1-carboxamido)acetamido)-7-fluoro-2-hydroxy-3,4-dihydro-2H-benzo[e][1,2]oxaborinine-8-carboxylic acid]	> 5.00	< 1	2 to 4 (≈ 2.56 to 5.12 µM)	2 to 4 (≈ 2.56 to 5.12 µM)	< 1	8 to 16 (≈ 10.2 to 20.5 µM)	< 1	2 to 4 (≈ 2.56 to 5.12 µM)	4 to 8 (≈ 5.12 to 10.2 µM)	> 64	> 64
O=C(NCCCS(=O)(=O)N1CCN(C(=O)NC(C(=O)N[C@H]2Cc3ccc(F)c(C(=O)O)c3OB2O)c2cc(F)c(O)c(O)c2Cl)C1=O)c1ccccc1 (stereo partly drawn) [Example 268, (3R)-3-(2-(3-((3-benzamidopropyl)sulfonyl)-2-oxoimidazolidine-1-carboxamido)-2-(2-chloro-5-fluoro-3,4-dihydroxyphenyl)acetamido)-7-fluoro-2-hydroxy-3,4-dihydro-2H-benzo[e][1,2]oxaborinine-8-carboxylic acid]	> 5.00	< 1	2 to 4 (≈ 2.56 to 5.13 µM)	32 to 64 (≈ 41 to 82.1 µM)	< 1	8 to 16 (≈ 10.3 to 20.5 µM)	2 to 4 (≈ 2.56 to 5.13 µM)	8 to 16 (≈ 10.3 to 20.5 µM)	16 to 32 (≈ 20.5 to 41 µM)	> 64	> 64
O=C(NCCCS(=O)(=O)N1CCN(C(=O)NC(C(=O)N[C@H]2Cc3ccc(F)c(C(=O)O)c3OB2O)c2cc(F)c(O)c(O)c2Cl)C1=O)c1ccc(O)cc1 (stereo partly drawn) [Example 269, (3R)-3-(2-(2-chloro-5-fluoro-3,4-dihydroxyphenyl)-2-(3-((3-(4-hydroxybenzamido)propyl)sulfonyl)-2-oxoimidazolidine-1-carboxamido)acetamido)-7-fluoro-2-hydroxy-3,4-dihydro-2H-benzo[e][1,2]oxaborinine-8-carboxylic acid]	> 5.00	< 1	2 to 4 (≈ 2.51 to 5.03 µM)	8 to 16 (≈ 10.1 to 20.1 µM)	2 to 4 (≈ 2.51 to 5.03 µM)	8 to 16 (≈ 10.1 to 20.1 µM)	32 to 64 (≈ 40.2 to 80.4 µM)	8 to 16 (≈ 10.1 to 20.1 µM)	4 to 8 (≈ 5.03 to 10.1 µM)	> 64	> 64
O=C(NCCCS(=O)(=O)N1CCN(C(=O)N[C@H](C(=O)N[C@H]2Cc3ccc(F)c(C(=O)O)c3OB2O)c2cc(F)c(O)c(O)c2Cl)C1=O)c1cccc(O)c1 [Example 270, (R)-3-((S)-2-(2-chloro-5-fluoro-3,4-dihydroxyphenyl)-2-(3-((3-(3-hydroxybenzamido)propyl)sulfonyl)-2-oxoimidazolidine-1-carboxamido)acetamido)-7-fluoro-2-hydroxy-3,4-dihydro-2H-benzo[e][1,2]oxaborinine-8-carboxylic acid]	> 5.00	< 1	32 to 64 (≈ 40.2 to 80.4 µM)	> 128	8 to 16 (≈ 10.1 to 20.1 µM)	32 to 64 (≈ 40.2 to 80.4 µM)	2 to 4 (≈ 2.51 to 5.03 µM)	> 128	> 64	> 64	> 64
